Data: US10053468B2, “Heterocyclic compound” (TAKEDA PHARMACEUTICAL COMPANY LIMITED, priority 2013, dated 2018)
Where two headings read alike, the source gives them in different places.

What was measured:
RORγt [1] = target: T1, RORγt (Homo sapiens, UniProt P51449); test: RORγt binding test using fluorescent-labeled cholesterol (TR-FRET); details: read-out: Binding inhibitory rate of fluorescent-labeled cholesterol to RORγt at test compound 1 μM (%)
T1 sequence (P51449 1-497 isoform P51449-2): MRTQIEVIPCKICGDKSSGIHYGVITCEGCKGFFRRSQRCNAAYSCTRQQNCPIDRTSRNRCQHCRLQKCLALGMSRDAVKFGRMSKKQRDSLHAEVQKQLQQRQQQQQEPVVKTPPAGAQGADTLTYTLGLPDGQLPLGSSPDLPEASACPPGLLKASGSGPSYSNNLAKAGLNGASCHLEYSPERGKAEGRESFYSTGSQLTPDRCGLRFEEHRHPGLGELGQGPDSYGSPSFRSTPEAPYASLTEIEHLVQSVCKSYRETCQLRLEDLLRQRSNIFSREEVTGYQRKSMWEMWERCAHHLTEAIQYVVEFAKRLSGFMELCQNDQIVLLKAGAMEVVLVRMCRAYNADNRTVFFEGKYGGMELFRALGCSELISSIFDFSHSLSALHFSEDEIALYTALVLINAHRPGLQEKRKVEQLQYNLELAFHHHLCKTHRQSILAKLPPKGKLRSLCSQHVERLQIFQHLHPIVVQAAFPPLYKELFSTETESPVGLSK
Procedure, shortened: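 TR-FRET displacement with His-tagged RORγt, BODIPY-cholesterol and Tb-anti-His antibody in Tris-HCl pH 7.5, 100 mM NaCl, 1 mM DTT, 0.1% BSA. Compound, RORγt and labelled cholesterol were incubated 20 min at RT, then antibody was added for another 20 min.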

RORγt [2] = target: T1, RORγt; test: RORγt binding test using fluorescent-labeled synthetic ligand (TR-FRET); details: read-out: Binding inhibitory rate of fluorescent-labeled synthetic ligand to RORγt at test compound 1 μM (%)
Procedure, shortened: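 His-tagged RORγt (diluted to 240 nM) with compound, then fluorescent synthetic ligand (diluted to 12 μM), 20 min at room temperature, followed by Tb anti-His antibody (diluted to 8 nM), 20 min.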

RORγt [3] = target: T1, RORγt; test: Cofactor recruitment test (Alpha Screen, biotinylated SRC-1 peptide); assay type: biochemical; details: read-out: Signal value inhibitory rate at test compound 1 μM (%)
Procedure: Cofactor Recruitment Test
Cofactor recruitment test was performed by Alpha Screen (Histidine Detection Kit, PerkinElmer) method. First, a test compound was diluted with an assay buffer (50 mM Tris-HCl (pH 7.5), 50 mM KCl, 1 mM DTT, 0.1% BSA) and added to a 384 well plate by 5 μL. […] The mixture was stood in a dark place for 1 hr, and the signal value was measured by Envision (PerkinElmer).

RORγt [4] = target: T1, RORγt; test: Jurkat reporter test (human IL-17 ROR response element luciferase, RORγt vector); assay type: cell-based; details: read-out: Luminescence level inhibitory rate at test compound 3 μM (%)
Procedure, shortened: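 Jurkat cells were electroporated (1350 V, 10 ms, 3 pulses) with reporter constructs, then cultured overnight with compound in RPMI containing 10% lipid-reduced FCS, 10 mM HEPES pH 7.5 and 5 μM lovastatin. Luciferase was quantified by Bright-Glo luminescence after 10 min at room temperature.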

[5] = test compound 3 μM, Jurkat cells

Structure (SMILES)	inhibition at 1 µM (RORγt [1])	inhibition at 1 µM (RORγt [2])	inhibition at 1 µM (RORγt [3])	inhibition at 3 µM (RORγt [4]; [5])	inhibition at 3 µM (RORγt [4]; Jurkat)
CCOc1ccc2c(c1)CCN(C(=O)CCCC(=O)O)[C@H]2C(=O)Nc1cc(F)c(C(C)(C)COCC(F)F)c(F)c1 [Example 153, 5-((1R)-1-((4-(1-(2,2-difluoroethoxy)-2-methylpropan-2-yl)-3,5-difluorophenyl)carbamoyl)-6-ethoxy-3,4-dihydroisoquinolin-2 (1H)-yl)-5-oxopentanoic acid]	100%	102%	84%	97%	
COc1ccc2c(n1)CCN(C(=O)Cc1cc(O)no1)[C@H]2C(=O)Nc1ccc(C(C)(C)C)c(F)c1 [Example 78, (5R)-N-(4-tert-butyl-3-fluorophenyl)-6-((3-hydroxy-1,2-oxazol-5-yl)acetyl)-2-methoxy-5,6,7,8-tetrahydro-1,6-naphthyridine-5-carboxamide]	101%	102%	89%	101%	
COc1ccc2c(c1)CCN(C(=O)c1cc(O)no1)[C@H]2C(=O)Nc1ccc(C(C)(C)C)c(F)c1 [Example 13, (1R)-N-(4-tert-butyl-3-fluorophenyl)-2-((3-hydroxy-1,2-oxazol-5-yl)carbonyl)-6-methoxy-1,2,3,4-tetrahydroisoquinoline-1-carboxamide]	100%	102%	80.4%	101%	
COc1ccc2c(c1)CCN(C(=O)Cc1cccnc1)[C@H]2C(=O)Nc1cc(F)c(C(C)(C)C(=O)N2CCCC2)c(F)c1 [Example 105, (1R)-N-(3,5-difluoro-4-(2-methyl-1-oxo-1-(pyrrolidin-1-yl)propan-2-yl)phenyl)-6-methoxy-2-(pyridin-3-ylacetyl)-1,2,3,4-tetrahydroisoquinoline-1-carboxamide]	103%	101%	100%	101%	
COc1ccc2c(n1)CCN(C(=O)Cc1cc(O)no1)[C@H]2C(=O)Nc1cc(F)c2c(c1)CCC2(C)C [Example 117, (5R)-N-(7-fluoro-1,1-dimethyl-2,3-dihydro-1H-inden-5-yl)-6-((3-hydroxy-1,2-oxazol-5-yl)acetyl)-2-methoxy-5,6,7,8-tetrahydro-1,6-naphthyridine-5-carboxamide]	102%	102%	87%	101%	
COCc1ccc2c(c1)CCN(C(=O)c1cc(O)no1)[C@H]2C(=O)Nc1cc(F)c([Si](C)(C)C)c(F)c1 [Example 131, (1R)-N-(3,5-difluoro-4-(trimethylsilyl)phenyl)-2-((3-hydroxy-1,2-oxazol-5-yl)carbonyl)-6-(methoxymethyl)-1,2,3,4-tetrahydroisoquinoline-1-carboxamide]	103%	101%	100%		103%
COc1ccc2c(c1)CCN(C(=O)CCc1cc(O)no1)[C@H]2C(=O)Nc1cc(F)c2c(c1)CCC2(C)C [Example 63, (1R)-N-(7-fluoro-1,1-dimethyl-2,3-dihydro-1H-inden-5-yl)-2-(3-(3-hydroxy-1,2-oxazol-5-yl)propanoyl)-6-methoxy-1,2,3,4-tetrahydroisoquinoline-1-carboxamide]	100%	102%	70%	99.9%	
CC[Si](C)(C)c1c(F)cc(NC(=O)[C@H]2c3ccc(OC)nc3CCN2C(=O)CCCC(=O)O)cc1F [Example 114, 5-((5R)-5-((4-(ethyl(dimethyl)silyl)-3,5-difluorophenyl)carbamoyl)-2-methoxy-7,8-dihydro-1,6-naphthyridin-6(5H)-yl)-5-oxopentanoic acid]	103%	102%	98%		101%
COCc1ccc2c(c1)CCN(C(=O)Cc1cc(O)no1)[C@H]2C(=O)Nc1cc(F)c([Si](C)(C)C)c(F)c1 [Example 121, (1R)-N-(3,5-difluoro-4-(trimethylsilyl)phenyl)-2-((3-hydroxy-1,2-oxazol-5-yl)acetyl)-6-(methoxymethyl)-1,2,3,4-tetrahydroisoquinoline-1-carboxamide]	101%	101%	100%		103%
CCOCC(C)(C)c1c(F)cc(NC(=O)[C@H]2c3ccc(OC)cc3CCN2C(=O)c2cc(O)no2)cc1F [Example 171, (1R)-N-(4-(1-ethoxy-2-methylpropan-2-yl)-3,5-difluorophenyl)-2-((3-hydroxy-1,2-oxazol-5-yl)carbonyl)-6-methoxy-1,2,3,4-tetrahydroisoquinoline-1-carboxamide]	100%	101%	82%	96%	
CC[Si](C)(C)c1c(F)cc(NC(=O)[C@H]2c3ccc(OC)nc3CCN2C(=O)c2cc(O)no2)cc1F [Example 111, (5R)-N-(4-(ethyl (dimethyl)silyl)-3,5-difluorophenyl)-6-((3-hydroxy-1,2-oxazol-5-yl)carbonyl)-2-methoxy-5,6,7,8-tetrahydro-1,6-naphthyridine-5-carboxamide]	103%	101%	99%		103%
CCOc1ccc2c(c1)CCN(C(=O)Cc1cc(O)no1)[C@H]2C(=O)Nc1ccc(C(C)(C)C)c(F)c1 [Example 67, (1R)-N-(4-tert-butyl-3-fluorophenyl)-6-ethoxy-2-((3-hydroxy-1,2-oxazol-5-yl)acetyl)-1,2,3,4-tetrahydroisoquinoline-1-carboxamide]	103%	102%	87%	100%	
COc1ccc2c(c1)CCN(C(=O)Cc1cc(O)no1)[C@H]2C(=O)Nc1cc(F)c(C(C)(C)COCC(F)F)c(F)c1 [Example 159, (1R)-N-(4-(1-(2,2-difluoroethoxy)-2-methylpropan-2-yl)-3,5-difluorophenyl)-2-((3-hydroxy-1,2-oxazol-5-yl)acetyl)-6-methoxy-1,2,3,4-tetrahydroisoquinoline-1-carboxamide]	100%	101%	80%	97%	
COc1ccc2c(n1)CCN(C(=O)Cc1cc(O)no1)[C@H]2C(=O)Nc1ccc([Si](C)(C)C)c(F)c1 [Example 80, (5R)-N-(3-fluoro-4-(trimethylsilyl)phenyl)-6-((3-hydroxy-1,2-oxazol-5-yl)acetyl)-2-methoxy-5,6,7,8-tetrahydro-1,6-naphthyridine-5-carboxamide]	102%	102%	97%		100%
COCc1ccc2c(c1)CCN(C(=O)CCCC(=O)O)[C@H]2C(=O)Nc1cc(F)c([Si](C)(C)C)c(F)c1 [Example 130, 5-((1R)-1-((3,5-difluoro-4-(trimethylsilyl)phenyl)carbamoyl)-6-(methoxymethyl)-3,4-dihydroisoquinolin-2(1H)-yl)-5-oxopentanoic acid]	102%	102%	100%		104%
